Data reported in patent US20080170990A1, “Methods for Myocardial Imaging in Patients Having a History of Pulmonary Disease” (CV THERAPEUTICS, INC., priority 2006, published 2008).

How the values were obtained:
[1] = system: subjects undergoing stress/rest MPI; test: Stress/rest SPECT myocardial perfusion imaging, adenosine vs Regadenoson (Example 6); format: in vivo, human; conditions: 4D MSPECT; p=n.s.
Experimental: To determine the ability of Regadenoson to produce coronary hyperemia and accurately detect CAD, 35 subjects (26 men, 9 women; 67±10 years) underwent both A and Regadenoson stress/rest MPI, with 10.0±9.1 days between studies. […] Regadenoson [400 mcg (n=18), 500 mcg (n=17)] was administered as an IV bolus immediately followed by a saline flush, and then a Tc-99m radiopharmaceutical [sestamibi (n=34), tetrofosmin (n=1)]. SPECT images were uniformly processed, intermixed with control studies (normal and fixed-only defects), and interpreted by three observers in a blinded fashion using a 17-segment model. Quantitative analysis was also performed using 4D MSPECT. In addition to three separate readings, a consensus interpretation was performed and then a direct, same-screen comparison of A and REGADENASON images undertaken to determine relative differences, using 5 regions per study.

[2] = system: patients undergoing a clinically indicated coronary catheterization; test: Dose-ranging study of coronary flow velocity, heart rate and blood pressure after IV bolus (Example 2); format: in vivo, human
Experimental: The study included patients undergoing a clinically indicated coronary catheterization with no more than a 70% stenosis in any coronary artery and no more than a 50% stenosis of the study vessel had CBFv determined by Doppler flow wire. Study subject were selected after measuring baseline and peak CBFv after an intracoronary (IC) injection of 18 μg of Ado. 36 subjects were identified as meeting the study criteria of having a peak to baseline CBFv ration of ≧2.5 in response to Adenosine,
Regadenoson was administered to the study subjects by IV bolus in less than 10 seconds in amounts ranging from 10 μg to 500 μg. Regadenoson is selective for the A2A adenosine receptor.
The effectiveness of both compounds was measured by monitoring coronary flow velocity. Other coronary parameters that were monitored included heart rate and blood pressure. These parameters were measured in order to evaluate the time to peak dose response, the magnitude of the dose response and the duration of the dose response. Adverse events were also monitored. Coronary blood flow velocity was measured at the LAD or LCx vessel. The velocity measurements were taken by following standard heart catheterization techniques and inserting a 0.014 inch Doppler-tipped Flowire into the LAD or LCx vessel and thereafter monitoring blood flow velocity. In addition, hemodynamic and electrocardiographic measurements were recorded continuously.
Overall, 36 human subjects (n=36) were evaluated. Of the 36, 18 were female and 18 were male. Their mean age was 53.4 and they ranged from 24-72 years in age. Of the 36 subjects evaluated, the LAD vessel of 31 subjects was monitored, and the LCx vessel of 5 subjects was monitored. The following doses (μg) of Regadenoson were given to the subjects in a single iv bolus: 10 (n=4); 30 (n=6); 100 (n=4); 300 (n=7); 400 (n=9); 500 (n=6).

[3] = 400 μg IV bolus, about 1 minute after dosing

CNC(=O)c1cnn(-c2nc(N)c3ncn([C@@H]4O[C@H](CO)[C@@H](O)[C@H]4O)c3n2)c1 [Regadenoson, (1-{9-[(4S,2R,3R,5R)-3,4-dihydroxy-5-(hydroxymethyl)oxolan-2-yl]-6-aminopurin-2-yl}pyrazol-4-yl)-N-methylcarboxamide]
summed score following stress, quantitative analysis [1]: 133.6±1.6 | maximum decrease in diastolic BP [2, 3]: 10±5 mmHg | maximum decrease in systolic BP [2, 3]: 20±8 mmHg | maximum increase in heart rate [2, 3]: 18±8 bpm | tolerability ([2]; 10-500 μg IV bolus): generally well tolerated | amount at which plateau peak flow velocity is reached ([2]; IV bolus): less than 100 μg | lowest amount that increases peak flow velocity ([2]; IV bolus): 10 µg | time to peak flow ([2]; all doses (10-500 μg IV bolus)): about 30 seconds | peak effects compared with adenosine ([2]; doses above about 100 μg): equivalent to 18 μg ic adenosine
